Tests used:
RLS subjects = system: RLS subjects
Experimental: This was the first clinical study in which rasagiline was administered to RLS subjects. The dosage regimen of 1 mg/day rasagiline was chosen based on the optimal dosage regimen for the symptomatic treatment of PD. […] Therefore, in the event that a subject could not tolerate the 1 mg daily dose of rasagiline, a daily dose of 0.5 mg rasagiline was permitted. Rasagiline was administered orally as a tablet. Both the 1 mg and 0.5 mg rasagiline tablets were beveled round tablets, flat, white to off-white, scored on one side, plain on the other side. Teva Pharmaceutical Industries Ltd. was responsible for the manufacture and primary packaging of study medications according to current Good Manufacturing Practice (cGMP) principles and guidelines applicable to investigational medicinal products.
The Sleep Scale is a 12-item scale that provides a comprehensive view across almost all dimensions of sleep including daytime somnolence, sleep disturbance, sleep adequacy and sleep quantity. The investigator scored subjects on this scale at the baseline and Week 4, and 8 visits. The change from baseline to each post-baseline study visit was calculated as a secondary efficacy endpoint. (Hays, R. D. & Steward, A. L. (1992). Sleep measures. In A. L. Stewart & J. E. Ware (eds.), Measuring functioning and well-being: The Medical Outcomes Study approach (pp. 235-259), Durham, NC: Duke University Press.
N is the number of participants in the study. A low score indicates the absence of problems and a high score indicates a very severe problem.

[1] = system: old rats with periodic hindlimb movements; conditions: daily treatment; 3 consecutive nights beginning 7 days after onset; vs vehicle-treated rats
Experimental: In a group of old rats 16-20 months, sleep-wake behavior is recorded and hindlimb movements are detected by means of a magneto-inductive device during two 12-h light periods (Baier P. C. et al., Assessment of spontaneously occurring periodic limb movements in sleep in the rat, J. Neurol. Sci. 2002; 198(1-2): 71-77). Periodic hindlimb movements (PHLM) during nonrapid eye movement sleep (NREM) are identified according to modified human criteria in some of the rats, which are then selected for the rasagiline study. Half the rats are treated daily with rasagiline while the other half receive vehicle. Incidence of PHLM is determined for 3 consecutive nights, beginning 7 days after onset of treatment.

[2] = system: early Parkinson's disease subjects; conditions: rasagiline-treated subjects; cited from earlier work
[3] = system: patients with moderate to severe primary Restless Legs Syndrome; assay: Placebo-controlled, double-blind, randomized clinical test in primary RLS (Example 8)
[4] = VISIT WEEK 8, N=1, rasagiline 1 mg/day oral

SMILES: C#CCN[C@@H]1CCc2ccccc21 [rasagiline, R-(+)-N-propargyl-1-aminoindan]
- Optimal Sleep (Absolute Change) Median (RLS subjects; [4]): 0.00
- Optimal Sleep (Percent Change) Mean (RLS subjects; [4]): 0.00%
- Optimal Sleep (Percent Change) Median (RLS subjects; [4]): 0.00%
- Optimal Sleep Scale Mean (RLS subjects; [4]): 1.00
- Optimal Sleep Scale Median (RLS subjects; [4]): 1.00
- Short of Breath Scale Mean (RLS subjects; [4]): 0.00
- Short of Breath Scale Median (RLS subjects; [4]): 0.00
- Sleep Adequacy (Absolute Change) Mean (RLS subjects; [4]): 40.00
- Sleep Adequacy (Absolute Change) Median (RLS subjects; [4]): 40.00
- Sleep Adequacy (Percent Change) Mean (RLS subjects; [4]): 66.67%
- Sleep Adequacy (Percent Change) Median (RLS subjects; [4]): 66.67%
- Sleep Adequacy Mean (RLS subjects; [4]): 100.00
- Sleep Adequacy Median (RLS subjects; [4]): 100.00
- Sleep Disturbance (Absolute Change) Mean (RLS subjects; [4]): −16.25
- Sleep Disturbance (Absolute Change) Median (RLS subjects; [4]): −16.25
- Sleep Disturbance (Percent Change) Mean (RLS subjects; [4]): −43.33%
- Sleep Disturbance (Percent Change) Median (RLS subjects; [4]): −43.33%
- Sleep Disturbance Scale Mean (RLS subjects; [4]): 21.25
- Sleep Disturbance Scale Median (RLS subjects; [4]): 21.25
- Sleep Problems Index I (Absolute Change) Mean (RLS subjects; [4]): −16.67
- Sleep Problems Index I (Absolute Change) Median (RLS subjects; [4]): −16.67
- Sleep Problems Index I (Percent Change) Mean (RLS subjects; [4]): −100.00%
- Sleep Problems Index I (Percent Change) Median (RLS subjects; [4]): −100.00%
- Sleep Problems Index I Mean (RLS subjects; [4]): 0.00
- Sleep Problems Index I Median (RLS subjects; [4]): 0.00
- Sleep Problems Index II (Absolute Change) Mean (RLS subjects; [4]): −16.11
- Sleep Problems Index II (Absolute Change) Median (RLS subjects; [4]): −16.11
- Sleep Problems Index II (Percent Change) Mean (RLS subjects; [4]): −58.00%
- Sleep Problems Index II (Percent Change) Median (RLS subjects; [4]): −58.00%
- Sleep Problems Index II Mean (RLS subjects; [4]): 11.67
- Sleep Problems Index II Median (RLS subjects; [4]): 11.67
- Sleep Quantity (Absolute Change) Mean (RLS subjects; [4]): 0.00
- Sleep Quantity (Absolute Change) Median (RLS subjects; [4]): 0.00
- Sleep Quantity (Percent Change) Mean (RLS subjects; [4]): 0.00%
- Sleep Quantity (Percent Change) Median (RLS subjects; [4]): 0.00%
- Sleep Quantity (raw score) Mean (RLS subjects; [4]): 7.00
- Sleep Quantity (raw score) Median (RLS subjects; [4]): 7.00
- Sleep Short of Breath (Absolute Change) Mean (RLS subjects; [4]): 0.00
- Sleep Short of Breath (Absolute Change) Median (RLS subjects; [4]): 0.00
- Sleep Snoring (Absolute Change) Mean (RLS subjects; [4]): 20.00
- Sleep Snoring (Absolute Change) Median (RLS subjects; [4]): 20.00
- Sleep Snoring (Percent Change) Mean (RLS subjects; [4]): 25.00%
- Sleep Snoring (Percent Change) Median (RLS subjects; [4]): 25.00%
- Sleep Somnolence (Absolute Change) Mean (RLS subjects; [4]): 0.00
- Sleep Somnolence (Absolute Change) Median (RLS subjects; [4]): 0.00
- Sleep Somnolence (Percent Change) Mean (RLS subjects; [4]): 0.00%
- Sleep Somnolence (Percent Change) Median (RLS subjects; [4]): 0.00%
- Snoring Scale Mean (RLS subjects; [4]): 100.00
- Snoring Scale Median (RLS subjects; [4]): 100.00
- Somnolence Scale Mean (RLS subjects; [4]): 13.33
- Somnolence Scale Median (RLS subjects; [4]): 13.33
- improvement in the Sleep Problems Index II (RLS subjects; by eight weeks, remaining subject): 58%
- incidence of periodic hindlimb movements (PHLM) [1]: significantly fewer
- most commonly reported adverse events [2]: pain, headache and dizziness
- side effects typical of dopaminergic medications (hallucinations, somnolence, edema, nausea, vomiting, diarrhea) [2]: infrequently reported
- IRLSSG values, change from starting value ([3]; 0.5 mg and 1 mg groups, in comparison with the placebo group): significant improvement
- subjective symptoms (tingling, cramps and pain in the legs, restlessness, difficulties falling or remaining asleep) ([3]; end of treatment, both patient groups): either disappear or diminish to a tolerable minimum
- hallucinations, somnolence, edema, nausea, vomiting or diarrhea ([3]; patient reports): does not or only to a very minimal extent causes
- clinical improvement ([3]; patients in a moderate to severe stage of RLS): distinct clinical improvement
- tolerability and safety ([3]; patients with moderate to severe RLS): well tolerated and safe
